The results in this text go back to PubChem BioAssay (NCI).

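All cell lines were grown in 96-well plates and treated with compound for 48 hours. The concentration for 50% growth inhibition is given as GI50. TGI: concentration producing complete growth inhibition.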

Test systems include EKVX NSCLC; HCC-2998 colon; IGROV1 ovarian; K-562 leukemia; MOLT-4 leukemia; NCI-H522 lung; SF-295 CNS; UACC-257 melanoma; TK-10 renal.
Common to all, as to assay: NCI anticancer screen, dose series, 48 h

Take `COC(=O)C(Cc1nc2ccc(Cl)cc2[nH]c1=O)/C(=N\N)C(=O)Nc1cc(C)c(Cl)cc1S(=O)(=O)O` (stereo unspecified): the TGI in the experiment with EKVX NSCLC, in the experiment with HCC-2998 colon, with IGROV1 ovarian, in the experiment with K-562 leukemia, in the experiment with MOLT-4 leukemia and with NCI-H522 lung was greater than 100 µM each time. Besides, the TGI in the experiment on SF-295 CNS and in the experiment with UACC-257 melanoma was greater than 100 µM in each case.

As to `O=C1/C(=C/c2ccc(Cl)cc2)CCC1CCN1CCOCC1` (stereo unspecified), the TGI with EKVX NSCLC is greater than 100 µM; in the experiment on HCC-2998 colon, greater than 100 µM; in the experiment on IGROV1 ovarian it was greater than 100 µM; in the experiment on K-562 leukemia, greater than 100 µM; in the experiment with MOLT-4 leukemia, 82.6 µM; in the experiment with SF-295 CNS, greater than 100 µM. Further, the TGI in the experiment with TK-10 renal and in the experiment on UACC-257 melanoma was greater than 100 µM each time.

Take `Cc1ccc(NC(=O)CCc2cc(C(C)(C)C)nc(=S)[nH]2)cc1C`: the TGI with EKVX NSCLC, in the experiment with HCC-2998 colon, in the experiment with IGROV1 ovarian, with K-562 leukemia, in the experiment with MOLT-4 leukemia and in the experiment with NCI-H522 lung was greater than 100 µM each time. The TGI in the experiment on SF-295 CNS, in the experiment on TK-10 renal and in the experiment with UACC-257 melanoma was greater than 100 µM throughout.

Turning to `COc1cccc(C2=NC(C(C)C)CO2)c1` (stereo unspecified), the TGI in the experiment with EKVX NSCLC, with HCC-2998 colon, in the experiment with IGROV1 ovarian, in the experiment with K-562 leukemia, in the experiment on MOLT-4 leukemia and with NCI-H522 lung was greater than 100 µM in each case. The TGI in the experiment with SF-295 CNS, with TK-10 renal and with UACC-257 melanoma was greater than 100 µM in each case.

Take `CCC(C)COC(=O)c1ccc(N=Cc2ccc(C=Nc3ccc(C(=O)OCC(C)CC)cc3)cc2)cc1` (stereo unspecified): the TGI in the experiment with EKVX NSCLC, in the experiment with HCC-2998 colon, with IGROV1 ovarian, in the experiment with K-562 leukemia, in the experiment with MOLT-4 leukemia and in the experiment on NCI-H522 lung was greater than 100 µM each time. Besides, the TGI in the experiment on SF-295 CNS and with UACC-257 melanoma was greater than 100 µM in each case.

For the molecule `CC12CP(=O)(c3ccccc3)CC1C2(Cl)Cl` (stereo unspecified), the TGI in the experiment on EKVX NSCLC, in the experiment with HCC-2998 colon, with IGROV1 ovarian, in the experiment with K-562 leukemia, in the experiment with MOLT-4 leukemia and in the experiment with NCI-H522 lung was greater than 100 µM each time. Moreover, the TGI in the experiment with SF-295 CNS and with TK-10 renal was greater than 100 µM each time.

On to `Cc1cc(Cl)ccc1NC(=O)C(=O)Cc1nc2ccccc2o1`, for which the TGI in the experiment with EKVX NSCLC, in the experiment with HCC-2998 colon, in the experiment with IGROV1 ovarian, with K-562 leukemia, in the experiment with MOLT-4 leukemia and in the experiment with NCI-H522 lung was greater than 100 µM throughout. Also, the TGI with SF-295 CNS, in the experiment on TK-10 renal and with UACC-257 melanoma was greater than 100 µM each time.

Consider `CCOc1ccccc1NC(=O)C(=O)CC(=O)c1sc(Nc2nnc(-c3ccc(Cl)c(Cl)c3)o2)nc1C`, for which the TGI in the experiment with EKVX NSCLC, in the experiment with HCC-2998 colon, in the experiment with IGROV1 ovarian, in the experiment on K-562 leukemia, in the experiment with MOLT-4 leukemia and with SF-295 CNS was greater than 100 µM throughout. Also, the TGI in the experiment with TK-10 renal and in the experiment on UACC-257 melanoma was greater than 100 µM each time.

For `COc1ccc(CC2NCCc3c2[nH]c2ccccc32)cc1` (stereo unspecified), the TGI with EKVX NSCLC was greater than 100 µM; in the experiment with HCC-2998 colon it was 48.3 µM; with IGROV1 ovarian it was greater than 100 µM; with K-562 leukemia, greater than 100 µM; with MOLT-4 leukemia it was greater than 100 µM; in the experiment with SF-295 CNS, greater than 100 µM. In the experiment with TK-10 renal, this molecule displayed a TGI greater than 100 µM.

Turning to `CCN1CCC(O)(c2ccc(OC)cc2)C(C(=O)c2ccc(OC)cc2)C1` (stereo unspecified), the TGI was 98 µM with EKVX NSCLC; 41.2 µM with HCC-2998 colon; greater than 100 µM in the experiment with IGROV1 ovarian; greater than 100 µM in the experiment with K-562 leukemia; greater than 100 µM with MOLT-4 leukemia; 4.06 µM in the experiment with NCI-H522 lung. The figures for the TGI with SF-295 CNS, with TK-10 renal and in the experiment on UACC-257 melanoma were greater than 100 µM, 10.4 µM and 48 µM, respectively.

For the molecule `Cn1cc(-c2csc(-c3c[nH]c4ccc(F)cc34)n2)c2cnccc21`, the GI50 in the experiment with EKVX NSCLC is 1.62 µM; with HCC-2998 colon, 1.95 µM; in the experiment with IGROV1 ovarian, 1.59 µM; in the experiment on NCI-H522 lung it was 1.79 µM; in the experiment on SF-295 CNS, 1.74 µM; in the experiment with TK-10 renal it was 2.22 µM. Moreover, the GI50 in the experiment with UACC-257 melanoma is 1.96 µM. In addition, the TGI in the experiment on EKVX NSCLC was determined as 3.3 µM; in the experiment with HCC-2998 colon it was 3.66 µM; in the experiment with IGROV1 ovarian, 3.09 µM; in the experiment with NCI-H522 lung, 3.29 µM; in the experiment on SF-295 CNS it was 3.25 µM; with TK-10 renal it was 3.75 µM. The molecule also yielded a TGI in the experiment with UACC-257 melanoma of 3.55 µM.

With `COc1cccc2c1C(=O)c1c(O)c3c(c(O)c1C2=O)C[C@](O)(C(=O)CO)C[C@H]3O[C@@H]1C[C@@H](NC(=O)CCCCCN(C)C2(c3ccc(F)cc3)CC3CCC2C3)[C@H](O)[C@@H](C)O1` (stereo partly specified), the GI50 was 7.85 µM in the experiment on EKVX NSCLC; 1.03 µM in the experiment with HCC-2998 colon; 6.59 µM with IGROV1 ovarian; 1.11 µM with K-562 leukemia; 0.304 µM with MOLT-4 leukemia; 0.707 µM with NCI-H522 lung. In addition, the GI50 was 5.79 µM with SF-295 CNS, 0.611 µM in the experiment on TK-10 renal and 0.931 µM in the experiment on UACC-257 melanoma. Besides, the TGI with EKVX NSCLC was 17.7 µM; with HCC-2998 colon, 3.37 µM; in the experiment on IGROV1 ovarian it was 14.8 µM; in the experiment on K-562 leukemia it was 2.47 µM; in the experiment with MOLT-4 leukemia, 2.61 µM; with NCI-H522 lung, 1.57 µM. The TGI worked out at 13.3 µM in the experiment with SF-295 CNS, 1.28 µM in the experiment on TK-10 renal and 1.73 µM in the experiment with UACC-257 melanoma.

Regarding `NC(=O)C12CC3CC(CC(F)(C3)C1)C2`, the TGI with EKVX NSCLC, with HCC-2998 colon, in the experiment with IGROV1 ovarian, in the experiment with K-562 leukemia, in the experiment on MOLT-4 leukemia and in the experiment on NCI-H522 lung was greater than 100 µM throughout. The TGI in the experiment on TK-10 renal and in the experiment with UACC-257 melanoma was greater than 100 µM in each case.

As to `O=c1ccn([C@H]2CSC[C@@H](CO)C2)c(=O)[nH]1`, the TGI with EKVX NSCLC, in the experiment with HCC-2998 colon, in the experiment with IGROV1 ovarian, with K-562 leukemia, in the experiment with MOLT-4 leukemia and with NCI-H522 lung was greater than 100 µM throughout. For the same molecule, the TGI in the experiment on TK-10 renal and in the experiment with UACC-257 melanoma was greater than 100 µM throughout.
